Measured values as given in US20190275167A1, “GLASS FORMULATIONS AND USES THEREOF” (priority 2018, published 2019).
Values belong to the compound of their own block, whether it stands above or below them.

Tests used:
[1] = Drug release from heat-molded pellets/articles in release buffer (PBS, 1% FBS in PBS or 100% FBS) at 37° C., HPLC quantification; assay type: physicochemical; details: for Drug release from heat molded pellets: pellets 1 mm×1 mm
Description: Samples were incubated at 37° C. on a shaker rotating at 115 rpm. After 1 day, 3 days, 7 days, and subsequently in alternating 3 and 4 day intervals (i.e., 1, 3, 7, 10, 14 days etc.), release buffer was sampled directly (PBS) or syringe filtered, proteins were precipitated with acetonitrile, and drug release products were extracted. The samples were analyzed by high performance liquid chromatography (HPLC) to quantify drug products.

[2] = Ethylene oxide (ETO) gas sterilization of heat-molded pellets, purity by HPLC and drug release pre- and post-ETO; assay type: physicochemical; details: ETO gas at 55° C.
[3] = tested on: joint of a subject suffering from inflammation, e.g., arthritis; assay: Microparticles and nanoparticles injected into the joint of a subject suffering from inflammation; assay type: in vivo
Source text: Microparticles and nanoparticles are formed from Compound 1 according to the methods described in above. […] Local inflammation in the joint of the subject is reduced. Similarly, the other compounds of the disclosure can likewise be used to form micro- and nanoparticles and injected into the joint of a subject for the purposes of treating, e.g., inflammation, and the drug is released at a steady rate over several months (e.g., three months).

Compound: Fusidic Acid-Triethylene Glycol-Fusidic Acid (carbonate ester) [Compound 9]
Speed of drug release compared to other drug dimers with triethylene glycol linker ([1]; 100% FBS): release very quickly

Compound: Cholesterol-Triethylene Glycol-Cholesterol [Compound 14]
Drug release from heat molded pellets ([1]; 100% FBS, 37° C.): no drug was released
Drug release from heat molded pellets ([1]; PBS, 37° C.): no drug was released

Compound: Hydrocortisone-Triethylene Glycol-Hydrocortisone [Compound 2]
Speed of drug release compared to other drug dimers with triethylene glycol linker ([1]; 100% FBS): release very quickly

Second part, led by results:

Shape of pellets during surface erosion (FIG. 1F (100% FBS)): maintaining their shape
Physical form (shape) changes of articles (physiologically relevant conditions): do not
Change in pellet purity due to ETO sterilization (HPLC) ([2]; pre- vs post-sterilization): no changes
Change in release properties due to ETO sterilization ([2]; release in 1% FBS in PBS or 100% FBS): no changes
Release of drug into the subject from injected micro- and nanoparticles [3]: steady rate over three months
Mechanism of drug release from pellets (representative images over time) ([1]; 100% FBS, 37° C.): surface erosion
Dexamethasone release profile from articles ([1]; over the course of 12 weeks or more, FIGS. 1E, 12E, 15C, 17D): generally linear
Compound: C[C@@H]1C[C@H]2[C@@H]3CCC4=CC(=O)C=C[C@]4(C)[C@@]3(F)[C@@H](O)C[C@]2(C)[C@@]1(O)C(=O)COC(=O)OCCOCCOCCOC(=O)OCC(=O)[C@@]1(O)[C@H](C)C[C@H]2[C@@H]3CCC4=CC(=O)C=C[C@]4(C)[C@@]3(F)[C@@H](O)C[C@@]21C [Compound 1, Dexamethasone-Triethylene Glycol-Dexamethasone]
Local inflammation in the joint of the subject [3]: reduced

Drug release from heat molded pellets ([1]; 100% FBS, 37° C.): no drug was released
Drug release from heat molded pellets ([1]; PBS, 37° C.): no drug was released
Compound: Ethinylestradiol-Triethylene Glycol-Ethinylestradiol [Compound 16]

Drug release from heat molded pellets ([1]; 100% FBS, 37° C.): no drug was released
Drug release from heat molded pellets ([1]; PBS, 37° C.): no drug was released
Compound: Fusidic Acid-Triethylene Glycol-Fusidic Acid (ester) [Compound 15]
